pIC50: −log10 of the molar value.
Experiments:
[1] = test system: human B cell lymphoma DOHH-2 cells; assay: Proliferation of DOHH-2 cells in vitro (MTT); assay type: cell-based; conditions: single compound, 72 hours
Procedure: Cell line: human B cell lymphoma DOHH-2 cells (purchased from DSMZ), cultured in vitro in RPMI 1640 medium containing 10% fetal bovine serum (FBS).
(§1) Each of the test compounds was all formulated with DMSO into a 10 mM stock solution, which was formulated into the desired concentration with serum-free medium when used.
A certain number of cells in logarithmic growth phase was inoculated in a 96-well culture plate. After 24 hours, the cells were added with the test compounds in different concentrations (1-100000 nM), and incubated for 72 hours. Each well was added with the MTT working solution. After 4 hours, the cells were lysed with the triple solution, and the OD value was measured at a wavelength of 570 nm by a microplate reader. […]
The half effective concentration IC50 was calculated using the non-linear regression method according to the inhibition, rate of each concentration.
In the combined administration, the concentration ratio of compound A to compound B was 1:10. The combination index (CI) was calculated with Calcu-Syn program using the median effect method to evaluate the relationship between the two compounds during the combined administration (CI<1 refers to synergistic effect, CI=1 refers to additive effect, CI>1 refers to antagonistic effect).

[2] = test system: human B cell lymphoma SU-DHL-4 cells; assay: Proliferation of SU-DHL-4 cells in vitro (MTT); assay type: cell-based; conditions: single compound, 72 hours
Procedure: (§2) Cell line: human B cell lymphoma SU-DHL-4 and SU-DHL-6 cells (purchased from ATCC), cultured in vitro in RPMI 1640 medium containing 10% fetal bovine serum (FBS).
as §1
(§3) A certain number of cells in logarithmic growth phase was inoculated in a 96-well culture plate. After 24 hours, the cells were added with the test compounds in different concentrations (1-40000 nM), and incubated for 72 hours. Each well was added with the MTT working solution. After 4 hours, the cells were lysed with the triple solution (10% SDS, 5% isobutanol, 0.012 mol/L HCl) at 37° C. overnight, and the OD value was measured at a wavelength of 570 nm by a microplate reader. […]
(§4) The half effective concentration IC50 was calculated using the non-linear regression method according to the inhibition rate of each concentration.
(§5) In the combined administration, the concentration ratio of compound A to compound B was 1:2 (for SU-DHL-4) and 1:4 (for SU-DHL-6). The combination index (CI) was calculated with Calcu-Syn program using the median effect method to evaluate the relationship between the two compounds during the combined administration (CI<1 refers to synergistic effect, CI=1 refers to additive effect, CI>1 refers to antagonistic effect).

[3] = test system: human B cell lymphoma SU-DHL-6 cells; assay: Proliferation of SU-DHL-6 cells in vitro (MTT); assay type: cell-based; conditions: single compound, 72 hours
Procedure: as §2, §1, §3, §4, §5

[4] = test system: human follicular lymphoma DOHH-2 cells subcutaneous transplantation tumor; assay: Subcutaneous transplantation tumor in nude mice inoculated with DOHH-2 cells; assay type: in vivo, BALB/cA-nude nude mice; conditions: DOHH-2 xenograft, 50 mg/kg each, PO, BID, D 0-20; for Mean tumor volume D 0: baseline at first administration
Text: Test animals: BALB/cA-nude nude mice, 5-6 weeks old, female, purchased from Shanghai Lingchang Biotechnology Co., Ltd., with laboratory animals use license No.: SCXK (Shanghai) 2013-0018 and animal certificate No.: 2013001818958, feeding condition: SPF grade.
The test compounds were all formulated with 0.2% Tween 80+0.5% CMC solutions, and diluted to the corresponding concentration.
(1) The nude mice were subcutaneously inoculated with lymphoma DOHH-2 cells. When the tumors grown to 100-200 mm^3, the animals were grouped randomly (D0).
(§6) (2) Observation and recording: the tumor volume was measured 2 to 3 times per week, the mice were weighed, and the data were recorded.
(§7) The endpoint is mainly dependent on whether the tumor growth is delayed or whether the mouse is cured. The tumor volume (in mm^3) was measured twice a week with caliper in two dimensions.
The tumor volume (V) is calculated as: V=0.5×a×b^2, wherein a and b represent length and width, respectively; T/C (%)=(T−T0)/(C−C0)×100, wherein T and C represent the tumor volume at the end of the experiment; T0 and C0 represent the tumor volume at the beginning of the experiment. The T/C value (percentage) is indicative of anti-tumor efficacy.
(§8) (4) Data analysis: the statistics were summarized, including mean and standard error of mean (SEM), statistical analysis of differences in tumor volume between groups, and analysis of data obtained by drug interaction that was carried out at the optimal treatment time point after the last administration (Day 21 after grouping). One-way variance analysis was performed to compare tumor volume and tumor weight between groups. When a […] F-statistic was obtained (p<0.001, treatment variance vs. error variance), the comparison between groups was performed using Games-Howell test. All data were analyzed using SPSS17.0, and P<0.05 was considered as statistically significant.

[5] = test system: human B cell lymphoma SU-DHL-4 cells subcutaneous transplantation tumor; assay: Subcutaneous transplantation tumor in mice inoculated with SU-DHL-4 cells; assay type: in vivo, SCID.BG mice; conditions: SU-DHL-4 xenograft, PO; for Mean tumor volume D 0: baseline at first administration; for Mean tumor volume D 0 / % T/C D 14 / % tumor inhibition rate D 14 / Mean tumor volume D 14 / Complete regression (number of mice) / Partial regression (number of mice): 50 mg/kg each, BID, D 0-13; for Complete regression (number of mice) / Partial regression (number of mice): 8 mice per group; for tumor completely regressed, fraction of mice / tumor partially regressed, fraction of mice: 50 mg/kg; for tumor partially regressed, fraction of mice: text says QD×14
Text: Test animals: SCID.BG mice, 5-6 weeks old, female, purchased from Shanghai Lingchang Biotechnology Co., Ltd., with laboratory animals use license No.: SCXK (Shanghai) 2013-0018 and animal certificate No.: 2013001820833, feeding condition: SPF grade.
The test compounds were all formulated with 0.2% Tween 80+0.5% CMC solution, and diluted to the corresponding concentration.
(1) The mice were subcutaneously inoculated with SU-DHL-4 cells (B cell lymphoma SU-DHL-4 cells were purchased from ATCC). When the tumors grown to 100-150 mm^3, the animals were grouped according to the tumor volume (D0).
as §6, §7
The tumor volume (V) is calculated as: V=0.5×a×b^2, wherein a and b represent length and width, respectively; T/C (%)=(T−T0)/(C−C0)×100, wherein T and C represent the tumor volume at the end of the experiment; T0 and C0 represent the tumor volume at the beginning of the experiment. The T/C value (percentage) is indicative of anti-tumor efficacy. Tumor growth inhibition rate (TGI) (%)=100−T/C (%);
When the tumor regressed, the tumor growth inhibition rate (TGI) (%)=100−(T−T0)/T0×100
If the tumor volume is smaller than the initial volume, i.e. T<T0 or C<C0, it is defined as partial regression (PR); if the tumor completely disappears, it is defined as complete regression (CR).
as §8, with “14” for “21”, “single-tailed Mann-Whitney statistical analysis” for “the comparison between groups”, “to compare tumor volumes of the two groups,” for “using Games-Howell test. All data were analyzed using SPSS17.0,”

CC#CC(=O)N1CC[C@@H](n2cc(-c3ccc(Oc4c(F)cccc4F)cc3)c3c(N)n[nH]c(=O)c32)C1 [Compound A]
pIC50 [1]: 6.49 | pIC50 [2]: 5.98 | pIC50 [3]: 6.15 | Mean tumor volume D 0 [4]: 111.1 mm^3 | % T/C D 21 [4]: 51% | % tumor inhibition rate D 21 [4]: 49% | Mean tumor volume D 21 [4]: 742.0 mm^3 | Mean tumor volume D 0 [5]: 122.4 mm^3 | % T/C D 14 [5]: 24% | % tumor inhibition rate D 14 [5]: 76% | Mean tumor volume D 14 [5]: 276.9 mm^3 | Complete regression (number of mice) [5]: 1 | Partial regression (number of mice) [5]: 1 | tumor completely regressed, fraction of mice [5]: 1/8 | tumor partially regressed, fraction of mice [5]: 1/8

CCc1c(N(CC)C2CCOCC2)cc2oc(CN3CCCCC3)cc2c1C(=O)NCc1c(C)cc(C)[nH]c1=O [Compound B, N-((4,6-dimethyl-2-oxo-1,2-dihydropyridin-3-yl)methyl)-5-ethyl-6-(ethyl(tetrahydro-2H-pyran-4-yl)amino)-2-(piperidin-1-ylmethyl)benzofuran-4-carboxamide]
pIC50 [1]: 5.23 | pIC50 [2]: 5.66 | pIC50 [3]: 5.33 | Mean tumor volume D 0 [4]: 107.7 mm^3 | % T/C D 21 [4]: 65% | % tumor inhibition rate D 21 [4]: 35% | Mean tumor volume D 21 [4]: 914.1 mm^3 | Mean tumor volume D 0 [5]: 126.6 mm^3 | % T/C D 14 [5]: 40% | % tumor inhibition rate D 14 [5]: 60% | Mean tumor volume D 14 [5]: 384.7 mm^3 | Complete regression (number of mice) [5]: 1 | Partial regression (number of mice) [5]: 2 | tumor completely regressed, fraction of mice [5]: 1/8 | tumor partially regressed, fraction of mice [5]: 2/8

Source: patent US11065239B2, “Use of EZH2 inhibitor combined with BTK inhibitor in preparing drug for treating tumor” (Jiangsu Hengrui Medicine Co., Ltd., priority 2017, dated 2021)
